Test results published in paper PMC5407577, “Functional and genetic evidence that nucleoside transport is highly conserved in Leishmania species: Implications for pyrimidine-based chemotherapy” (International Journal for Parasitology: Drugs and Drug …, 2017).
Read-outs that look alike come from different tables or passages of the source.

Key:
LmexNT1 [1] = assay type: cell-based, Leishmania mexicana; details: inhibition of 1 μM [3H]-thymidine uptake, 20 s
Description: (§1) Using the standard uptake technique as described for T. brucei and Leishmania species ([Wallace et al., 2002], [Al-Salabi and De Koning, 2005], [Gudin et al., 2006]), the dose- or time-dependent uptake of radiolabeled permeants was investigated.
(§2) Briefly, cells in the mid-to-late logarithmic stage of growth were harvested by centrifugation for 10 min at 1500×g. The cells were washed twice with transport assay buffer (AB: 33 mM HEPES, 98 mM NaCl, 4.6 mM KCl, 0.55 mM CaCl2, 0.07 mM MgSO4, 5.8 mM NaH2PO4, 0.3 mM MgCl2, 23 mM NaHCO3, 14 mM glucose, pH 7.3), resuspended at a density of 10^8 cells ml^−1 in AB, and left for 20–30 min at room temperature to recover from centrifugation stress. One hundred microliters of cell suspension was incubated at ambient temperature for a predetermined time with 100 μl radiolabeled test compound, in the presence or absence of unlabeled substrate or other competitive inhibitors. The incubation was terminated by the addition of ice-cold stop solution (AB containing saturating levels, usually 10 mM, of unlabeled permeant) and centrifugation through oil for 1 min at 13,000 × g. […] Radioactivity was determined by liquid scintillation counting in a Beckman LS6000 TA scintillation counter. Saturation data, inhibition data, and time courses were plotted to equations for linear or non-linear regression (hyperbolic or sigmoid curves), as appropriate. All experiments were performed in triplicate and on at least three independent occasions.
L. donovani is known to express one pyrimidine nucleoside transporter, LdNT1, which also transports adenosine ([Vasudevan et al., 1998], [De Koning et al., 2005]). In order to investigate whether this model held true for L. mexicana, the uptake of [^3H]-thymidine was studied. […] Care was taken throughout this study that whenever inhibition constants (Ki) or Michaelis-Menten constants (Km) were determined the conditions used had been verified to be well within the linear range of uptake.

LmexNT1 [2] = assay: [3H]-adenosine uptake by L. mexicana promastigotes; assay type: cell-based, Leishmania mexicana
Text: Using the standard uptake technique as described for T. brucei and Leishmania species ([Wallace et al., 2002], [Al-Salabi and De Koning, 2005], [Gudin et al., 2006]), the dose- or time-dependent uptake of radiolabeled permeants was investigated. The following radiolabels and specific activities were used: [^3H]-thymidine (Perkin Elmer; 56.6 Ci/mmol); [^3H]-adenosine (American Radiolabeled Chemicals UK; 40 Ci/mmol); [^3H]-uridine (American Radiolabeled Chemicals UK; 30 Ci/mmol); [^3H]-uracil (Perkin Elmer; 24.8 Ci/mmol); [^3H]-inosine (American Radiolabeled Chemicals UK; 20 Ci/mmol); [^3H]-5-fluorouracil (Moravek; 20 Ci/mmol).
as §2
We next investigated the transport of [^3H]-adenosine in L. mexicana promastigotes, which according to the efficient inhibition of [^3H]-thymidine by adenosine, should be taken up with high affinity.

LmexNT1 [3] = assay type: cell-based, Leishmania mexicana; details: inhibition of 0.25 μM [3H]-uridine uptake in the presence of 1 mM uracil
Description: as §1, §2

LmajUUT1 = assay: [3H]-uridine uptake by L. major promastigotes, high-affinity uracil-sensitive component; assay type: cell-based, Leishmania major; details: inhibition of 0.25 μM [3H]-uridine uptake
Description: as §1, §2

LmajNT1 [4] = assay: [3H]-uridine uptake by L. major promastigotes, low-affinity component; assay type: cell-based, Leishmania major; details: inhibition of 0.25 μM [3H]-uridine uptake
Description: as §1, §2

LmajNT1 [5] = assay: [3H]-thymidine uptake by L. major promastigotes; assay type: cell-based, Leishmania major; details: inhibition of 0.25 μM [3H]-thymidine uptake (total LmajNT1.1 + LmajNT1.2), 5 min
Description: as §1, §2
Subsequent experiments were performed with a 5 min incubation time.

L. major promastigotes = assay: total [3H]-uridine uptake by L. major promastigotes; assay type: cell-based, Leishmania major; details: Leishmania major
Description: as §1, §2

T. b. brucei strain B48 [6] = assay: microbe, parasite or virus in culture; assay type: cell-based; details: Trypanosoma brucei, read-out: inhibition of 0.5 μM [3H]-uridine uptake, 250 μM inhibitor
Description: as §1
as §2, with “All experiments were performed in triplicate and on at least three independent occasions.” left out

T. b. brucei strain B48 [7] = assay: [3H]-inosine uptake in non-transfected T. brucei B48; assay type: cell-based, Trypanosoma brucei brucei
Description: as §1, §2

LmajNT2 = assay: [3H]-inosine transport by T. brucei B48 cells expressing LmajNT2; assay type: cell-based, Leishmania major
Description: (§3) Plasmid construction and transfection was performed according to [Munday et al. (2013)]. The nucleoside transporter genes were isolated from L. mexicana and L. major. […] The primers used in this study (Table S2) were designed to flank the gene of interest, one complementary to the sequence upstream of the 5′ end and the other complementary to the sequence downstream of the 3′ end. All of the nucleoside transporters genes were PCR-amplified from genomic DNA of each strain using the high-fidelity proof-reading polymerase Phusion (New England Biolabs) and cloned into the pGEMTeasy (Promega) vector prior to Sanger sequencing (Source BioScience, Glasgow, UK). […] After confirming the identity of each gene, the nucleoside transporter genes (LmajNT1A, LmajNT1B, LmajNT2, LmexNT1A, LmexNT1B, and LmexNT2) were ligated into the expression vector pHD1336 ([Biebinger et al., 1997]) and then were linearized with NotI digestion. All genes were verified by Sanger sequencing, prior to transfection into T. b. brucei clone B48. B48 parasites (1 × 10^7 cells) were washed into Human T Cell buffer for transfection using the desired cassette with an Amaxa Nucleofector using program X-001. Cells were transferred into pre-warmed HMI-9 medium and allowed to recover for 8–16 h at 37 °C and 5% CO2. Following recovery, transfectants were grown and cloned in selective medium containing 5 μg ml^−1 blasticidin S using limiting dilution.
as §1
(§4) Briefly, cells in the mid-to-late logarithmic stage of growth were harvested by centrifugation for 10 min at 1500×g. […] Radioactivity was determined by liquid scintillation counting in a Beckman LS6000 TA scintillation counter. […]

LmexNT2 = assay: [3H]-inosine transport by T. brucei B48 cells expressing LmexNT2; assay type: cell-based, Leishmania mexicana
Description: as §3, with “Cells were transferred into pre-warmed HMI-9 medium and allowed to recover for 8–16 h at 37 °C and 5% CO2. Following recovery, transfectants were grown and cloned in selective medium containing 5 μg ml^−1 blasticidin S using limiting dilution.” left out
as §4

LmexUU1 = assay type: cell-based, Leishmania mexicana; details: inhibition of [3H]-uracil uptake, 4 min
Description: as §1, §2

[8] = inhibition of 0.05 μM [3H]-adenosine uptake, read-out: Ki
[9] = 50 nM [3H]-inosine + 250 μM adenosine

SMILES	Ki (LmexNT1 [1]) [µM]	Ki (LmexNT1 [2]; [8]) [µM]	Ki (LmexNT1 [2]; inhibition of [3H]-adenosine uptake, read-out: affinity for inhibition of adenosine transport (Ki)) [µM]	Ki (LmexNT1 [3]) [µM]	Ki (LmajUUT1) [µM]	Ki (LmajNT1 [4]) [µM]	Ki (LmajNT1 [5]) [µM]	inhibition at 100 µM (L. major promastigotes; 20 min, read-out: inhibition of 0.25 μM uridine transport in time course over 20 min, 100 μM inhibitor, n = 2) [%]	inhibition at 100 µM (L. major promastigotes; at 100 μM inhibitor, read-out: inhibition of 0.25 μM [3H]-uridine transport) [%]	inhibition at 250 µM (T. b. brucei strain B48 [6]) [%]	rate of uptake (T. b. brucei strain B48 [7]; 50 nM [3H]-inosine)	inhibition of 50 nM [3H]-inosine transport (T. b. brucei strain B48 [7]; 250 μM adenosine or 1 mM unlabeled inosine (Fig. 7B))	uptake rate in the presence of adenosine (LmajNT2; [9])	inhibition of 50 nM [3H]-inosine transport (LmajNT2; 1 mM inosine) [%]	rate of transport in the presence of adenosine (LmexNT2; [9])	inhibition of 50 nM [3H]-inosine transport (LmexNT2; 1 mM inosine) [%]	Ki (LmexUU1) [µM]	inhibition at 0.25 µM (L. major promastigotes; 3 h, read-out: partial (maximal) inhibition of 0.25 μM [3H]-uridine transport) [%]
O=c1[nH]cnc2c1ncn2[C@@H]1O[C@H](CO)[C@@H](O)[C@H]1O [inosine]	640 ± 34	1630 ± 134	1600 ± 100	1010 ± 190	0.5 ± 0.16	> 1000	1990 ± 3050	83.5	70.8 ± 4.5	24.3	0.0049 ± 0.0002 pmol(10^7 cells)s^−1	fully inhibited	0.0023 ± 0.0001 pmol(10^7 cells)^−1s^−1	99.8	0.0023 ± 0.0003 pmol(10^7 cells)^−1s^−1	99.9	–	–
Nc1ncnc2[nH]cnc12 [adenine]	–	> 1000	–	> 1000	5.14 ± 2.25	> 1000	> 1000	–	–	–	–	–	–	–	–	–	288 ± 67	62.7 ± 1.7
